Experimental data reported in patent publication US20250066346A1, “SOLID FORMS OF A BENZTHIAZOLE-PIPERAZINYL-OXAZOLE COMPOUND AND METHODS OF USE THEREOF” (Hepagene Therapeutics (HK) Limited, priority 2022, published 2025).

Assay: Form conversion by variable-temperature XRPD (VT-XRPD)
Assay type: physicochemical
Details: for form after exposing to ambient conditions: ambient conditions for about 10 min; for form change after heating to 120° C. and cooling to 30° C.: with N2 protection, VT-XRPD
Description: […] 22.
Based on data above, it would convert to dehydrate state (HCl salt Form C) at low humidity and back to hydrate at high humidity.
HBr salt Form E was observed after N2 purging HBr salt Form D for 20 min at 30° C. via variable-temperature XRPD (VT-XRPD) shown in FIG. 23.
Based on data above, it would convert to dehydrate state (HBr salt Form E) at low humidity and back to hydrate at high humidity.

Row | form after exposing to ambient conditions | form change after heating to 120° C. and cooling to 30° C. | Structure (SMILES)
1 | HCl salt Form B was re-obtained | no form change occurred | COc1cc(C(=O)O)cc2sc(N3CCN(Cc4c(-c5c(Cl)cccc5Cl)noc4C4CC4)C[C@H]3C)nc12 [Form C, (R)-2-(4-((5-cyclopropyl-3-(2,6-dichlorophenyl)isoxazol-4-yl)methyl)-2-methylpiperazin-1-yl)-4-methoxybenzo[d]thiazole-6-carboxylic acid]
2 | HBr salt Form D was re-obtained | no form change occurred | COc1cc(C(=O)O)cc2sc(N3CCN(Cc4c(-c5c(Cl)cccc5Cl)noc4C4CC4)C[C@H]3C)nc12 [Form E, (R)-2-(4-((5-cyclopropyl-3-(2,6-dichlorophenyl)isoxazol-4-yl)methyl)-2-methylpiperazin-1-yl)-4-methoxybenzo[d]thiazole-6-carboxylic acid]
